The supplement of paper PMC4862054

Assays:
Assay in all cases: normalised response (% of control), CellTiter-Glo; higher = more viable cells (100 = DMSO, 0 = benzethonium chloride kill control)
Details in all cases: incubation time: 72 h
HCC1143 = system: HCC1143
Outline: (§1)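 Values are normalised signals, each belonging to one concentration of the series. Breast cancer cells (20 µl suspension) were seeded into 384-well plates with compound at 5 concentrations in 10-fold steps over a compound-specific 10,000-fold range and incubated 72 h. Readouts were CellTox Green fluorescence (485/520 nm), then CellTiter-Glo luminescence after 10 min at room temperature, with each plate set to 0.1 % DMSO as 100 and a positive kill control as 0.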

MDA-MB-468 = system: MDA-MB-468
Outline: as §1

HCC1937 = system: HCC1937
Outline: as §1

Hs578T = system: Hs578T
Outline: as §1

SK-BR-3 = system: SK-BR-3
Outline: as §1

CAL-51 = system: CAL-51
Outline: as §1

MCF-10A = system: MCF-10A
Outline: as §1

HDQ-P1 = system: HDQ-P1
Outline: as §1

HCC1599 = system: HCC1599
Outline: as §1

DU-4475 = system: DU-4475
Outline: as §1

CAL-85-1 = system: CAL-85-1
Outline: as §1

BT-474 = system: BT-474
Outline: as §1

MDA-MB-453 = system: MDA-MB-453
Outline: as §1

CAL-148 = system: CAL-148
Outline: as §1

MFM-223 = system: MFM-223
Outline: as §1

MDA-MB-436 = system: MDA-MB-436
Outline: as §1

BT-549 = system: BT-549
Outline: as §1

MDA-MB-231 = system: MDA-MB-231
Outline: as §1

CAL-120 = system: CAL-120
Outline: as §1

| Structure (SMILES) | normalised response (HCC1143) | normalised response (MDA-MB-468) | normalised response (HCC1937) | normalised response (Hs578T) | normalised response (SK-BR-3) | normalised response (CAL-51) | normalised response (MCF-10A) | normalised response (HDQ-P1) | normalised response (HCC1599) | normalised response (DU-4475) | normalised response (CAL-85-1) | normalised response (BT-474) | normalised response (MDA-MB-453) | normalised response (CAL-148) | normalised response (MFM-223) | normalised response (MDA-MB-436) | normalised response (BT-549) | normalised response (MDA-MB-231) | normalised response (CAL-120) |
| --- | --- | --- | --- | --- | --- | --- | --- | --- | --- | --- | --- | --- | --- | --- | --- | --- | --- | --- | --- |
| CCN1CCN(c2ccc(Nc3cc(N(C)C(=O)Nc4c(Cl)c(OC)cc(OC)c4Cl)ncn3)cc2)CC1 [NVP-BGJ398] (1 nM) | 98.8% | 100% | 104% | 103% | 108% | 118% | 108% | 101% | 88.4% | 99% | 98.3% | 94.9% | 97.7% | 96.1% | 97.1% | 97.7% | 96% | 95.8% | 97.2% |
| COc1cccc2cc(-c3nc([C@H]4CC[C@H](C(=O)O)CC4)n4ncnc(N)c34)[nH]c12 [OSI-027] (10 nM) | 96.6% | 94.6% | 94.2% | 97.7% | 77.3% | 82.7% | 98.8% | 100% | 92.7% | 97.1% | 90.7% | 101% | 94.3% | 88.7% | 93% | 93.8% | 93.8% | 96% | 101% |
| OC[C@H]1O[C@@H](n2cnc3c2N=CNC[C@H]3O)C[C@@H]1O [Pentostatin] (10 nM) | 98.9% | 94.4% | 98.2% | 106% | 101% | 78% | 99.9% | 100% | 104% | 104% | 102% | 98% | 103% | 102% | 101% | 97.3% | 91.2% | 99.2% | 98% |
| N#CC[C@H](C1CCCC1)n1cc(-c2ncnc3[nH]ccc23)cn1 [Ruxolitinib] (10 nM) | 100% | 100% | 89.3% | 96.2% | 81.5% | 121% | 88.8% | 94% | 76.5% | 97.4% | 91.2% | 97% | 83.8% | 86% | 92.6% | 92.2% | 98.3% | 95.2% | 104% |
| C=CC[C@@H]1/C=C(\C)C[C@H](C)C[C@H](OC)[C@H]2O[C@@](O)(C(=O)C(=O)N3CCCC[C@H]3C(=O)O[C@H](/C(C)=C/[C@@H]3CC[C@@H](O)[C@H](OC)C3)[C@H](C)[C@@H](O)CC1=O)[C@H](C)C[C@@H]2OC [Tacrolimus] (10 nM) | 103% | 97.6% | 100% | 103% | 119% | 110% | 103% | 100% | 102% | 105% | 99% | 105% | 109% | 97.4% | 98.8% | 106% | 101% | 100% | 97.7% |
